From patent US20230029496A1, “AMINO ACID ALTERNATIVE CURING SYSTEM” (THE TEXAS A&M UNIVERSITY SYSTEM, priority 2019, published 2023)
Values joined by “and” are separate entries in the source; they are usually repeats but may differ in a detail not shown here. Identical values can stand only once. Like-named read-outs stand apart in the source and are kept apart here. Marks after values point to notes of the source that are not given here.

Legend:
[1] = system: nitric oxide synthase system; conditions: poultry; for Residual Nitrite, LSMean main effect of Temperature: L-arginine
Procedure: (§1) Fresh ground meat (beef, pork or poultry) was separated in ˜0.5 Kg batches and mixed with 2% salt and 10% added water. […] Each individual batch was mixed (1 min) in a food processor, removed for temperature and pH analyses and then placed into a jerky extruder tube. Approximately 25 g of sample were extruded into 50 mL centrifuge, then capped and labeled and placed into a controlled water batch and heated to a designated internal endpoint temperature (132, 158, or 165° F.).
(§2) Samples also contained 547 ppm sodium erythorbate, a cure accelerator (Phase I) and without sodium erythorbate (Phase II). Samples were placed into test tubes and heated in a controlled water bath to 132, 158 and 165° F. Samples were held in a 40° F. cooler for seven days then tested for residual nitrite. Residual nitrite was tested after deproteinization for amino acid analysis by HPLC. Determination of nitrite (UV/VIS Spectrophotometric Method) was used to detect any residual nitrite for best results in detecting minute amounts of nitrite. Residual nitrite levels were read in a 96 well plate reader at 540 nm.
(§3) Both phases of the experiment were designed as a factorial (concentration level and endpoint temperature) randomized complete block design with three replications. […] Least squares means were generated and Tukey's HSD used to determine significance at P≤0.05.

[2] = system: nitric oxide synthase system; conditions: beef; for Residual Nitrite, LSMean main effect of Temperature: L-arginine
Procedure: as §1, §2, §3

NOS system = experiment: Residual nitrite in test beef frankfurters (Example 12); conditions: for Nitrite: 7 days of storage
Procedure: The remaining nonmeat ingredients were added (except the antimicrobial) and chopped at 2000 rpm for one minute. Protecta (sodium acetate antimicrobial) was added and the emulsion chopped at 4000 rpm for one minute. The emulsion was evacuated and placed into a vacuum assisted stuffer where each test emulsion was stuffed and twist linked into 22 mm cellulose casings weighing 40 g each. The frankfurter links were hung on smokehouse trucks, placed into a commercial smokehouse and thermally processed to 160° F. (Table 18).
After thermal processing and chilling (40° F.), the casings were peeled from the frankfurters and were vacuum packaged and stored under refrigerated conditions for residual nitrite and nitrosylation. […] This was done to determine if the L-arginine could the NOS system to generate sufficient NO for cure color development and residual nitrite for antioxidant and antimicrobial effect.

[3] = system: nitric oxide synthase system; conditions: pork, Phase I, with 547 ppm sodium erythorbate, 1000 ppm L-arginine
Procedure: as §1, §2, §3

[4] = Phase I, with 547 ppm sodium erythorbate, 1000 ppm L-arginine, 132° F.
[5] = Phase I, with 547 ppm sodium erythorbate, 1000 ppm L-arginine, 158° F.
[6] = Phase I, with 547 ppm sodium erythorbate, 1000 ppm L-arginine, 165° F.
[7] = Phase I, with 547 ppm sodium erythorbate, 2000 ppm L-arginine, 132° F.
[8] = Phase I, with 547 ppm sodium erythorbate, 2000 ppm L-arginine, 158° F.
[9] = Phase I, with 547 ppm sodium erythorbate, 2000 ppm L-arginine, 165° F.
[10] = Phase I, with 547 ppm sodium erythorbate, 3000 ppm L-arginine, 132° F.
[11] = Phase I, with 547 ppm sodium erythorbate, 3000 ppm L-arginine, 158° F.
[12] = Phase I, with 547 ppm sodium erythorbate, 3000 ppm L-arginine, 165° F.
[13] = Phase I, with 547 ppm sodium erythorbate, 4000 ppm L-arginine, 132° F.
[14] = Phase I, with 547 ppm sodium erythorbate, 4000 ppm L-arginine, 158° F.
[15] = Phase I, with 547 ppm sodium erythorbate, 4000 ppm L-arginine, 165° F.
[16] = Phase I, with 547 ppm sodium erythorbate, 5000 ppm L-arginine, 132° F.
[17] = Phase I, with 547 ppm sodium erythorbate, 5000 ppm L-arginine, 158° F.
[18] = Phase I, with 547 ppm sodium erythorbate, 5000 ppm L-arginine, 165° F.
[19] = Phase II, without 547 ppm sodium erythorbate, 1000 ppm L-arginine
[20] = Phase II, without 547 ppm sodium erythorbate, 1000 ppm L-arginine, 132° F.
[21] = Phase II, without 547 ppm sodium erythorbate, 1000 ppm L-arginine, 158° F.
[22] = Phase II, without 547 ppm sodium erythorbate, 1000 ppm L-arginine, 165° F.
[23] = Phase II, without 547 ppm sodium erythorbate, 2000 ppm L-arginine
[24] = Phase II, without 547 ppm sodium erythorbate, 2000 ppm L-arginine, 132° F.
[25] = Phase II, without 547 ppm sodium erythorbate, 2000 ppm L-arginine, 158° F.
[26] = Phase II, without 547 ppm sodium erythorbate, 2000 ppm L-arginine, 165° F.
[27] = Phase II, without 547 ppm sodium erythorbate, 3000 ppm L-arginine
[28] = Phase II, without 547 ppm sodium erythorbate, 3000 ppm L-arginine, 132° F.
[29] = Phase II, without 547 ppm sodium erythorbate, 3000 ppm L-arginine, 158° F.
[30] = Phase II, without 547 ppm sodium erythorbate, 3000 ppm L-arginine, 165° F.
[31] = Phase II, without 547 ppm sodium erythorbate, 4000 ppm L-arginine
[32] = Phase II, without 547 ppm sodium erythorbate, 4000 ppm L-arginine, 132° F.
[33] = Phase II, without 547 ppm sodium erythorbate, 4000 ppm L-arginine, 158° F.
[34] = Phase II, without 547 ppm sodium erythorbate, 4000 ppm L-arginine, 165° F.
[35] = Phase II, without 547 ppm sodium erythorbate, 5000 ppm L-arginine
[36] = Phase II, without 547 ppm sodium erythorbate, 5000 ppm L-arginine, 132° F.
[37] = Phase II, without 547 ppm sodium erythorbate, 5000 ppm L-arginine, 158° F.
[38] = Phase II, without 547 ppm sodium erythorbate, 5000 ppm L-arginine, 165° F.
[39] = Phase II, without 547 ppm sodium erythorbate, 132° F.
[40] = Phase II, without 547 ppm sodium erythorbate, 158° F.
[41] = Phase II, without 547 ppm sodium erythorbate, 165° F.

## N=C(N)NCCC[C@H](N)C(=O)O [L-arginine]
[1]; Phase I, with 547 ppm sodium erythorbate, 1000 ppm L-arginine
  Residual Nitrite, LSMean main effect of Concentration: 65.44^ab ppm and 65.44 ppm
[1]; [4]
  Residual Nitrite, LSMean Conc × Temp: 76.46^ab ppm
[1]; [5]
  Residual Nitrite, LSMean Conc × Temp: 60.52^abc ppm
[1]; [6]
  Residual Nitrite, LSMean Conc × Temp: 59.36^abc ppm
[1]; Phase I, with 547 ppm sodium erythorbate, 2000 ppm L-arginine
  Residual Nitrite, LSMean main effect of Concentration: 72.28^a ppm and 72.28 ppm
[1]; [7]
  Residual Nitrite, LSMean Conc × Temp: 63.44^abc ppm
[1]; [8]
  Residual Nitrite, LSMean Conc × Temp: 77.50^a ppm
[1]; [9]
  Residual Nitrite, LSMean Conc × Temp: 75.91^ab ppm
[1]; Phase I, with 547 ppm sodium erythorbate, 3000 ppm L-arginine
  Residual Nitrite, LSMean main effect of Concentration: 54.95^bc ppm and 54.95 ppm
[1]; [10]
  Residual Nitrite, LSMean Conc × Temp: 60.08^abc ppm
[1]; [11]
  Residual Nitrite, LSMean Conc × Temp: 65.81^abc ppm
[1]; [12]
  Residual Nitrite, LSMean Conc × Temp: 38.96^cd ppm
[1]; Phase I, with 547 ppm sodium erythorbate, 4000 ppm L-arginine
  Residual Nitrite, LSMean main effect of Concentration: 48.16^cd ppm and 48.16 ppm
[1]; [13]
  Residual Nitrite, LSMean Conc × Temp: 50.99^a-d ppm
[1]; [14]
  Residual Nitrite, LSMean Conc × Temp: 49.31^a-d ppm
[1]; [15]
  Residual Nitrite, LSMean Conc × Temp: 44.17^cd ppm
[1]; Phase I, with 547 ppm sodium erythorbate, 5000 ppm L-arginine
  Residual Nitrite, LSMean main effect of Concentration: 38.14^d ppm and 38.14 ppm
[1]; [16]
  Residual Nitrite, LSMean Conc × Temp: 41.15^cd ppm
[1]; [17]
  Residual Nitrite, LSMean Conc × Temp: 25.07^d ppm
[1]; [18]
  Residual Nitrite, LSMean Conc × Temp: 48.20^bcd ppm
[1]; Phase I, with 547 ppm sodium erythorbate, 132° F.
  Residual Nitrite, LSMean main effect of Temperature: 48.43 ppm
[1]; Phase I, with 547 ppm sodium erythorbate, 158° F.
  Residual Nitrite, LSMean main effect of Temperature: 55.64 ppm
[1]; Phase I, with 547 ppm sodium erythorbate, 165° F.
  Residual Nitrite, LSMean main effect of Temperature: 53.32 ppm
[1]; [19]
  Residual Nitrite, LSMean main effect of Concentration: 65.37^a ppm and 65.44 ppm
[1]; [20]
  Residual Nitrite, LSMean Conc × Temperature: 87.36^a ppm
[1]; [21]
  Residual Nitrite, LSMean Conc × Temperature: 63.54^ab ppm
[1]; [22]
  Residual Nitrite, LSMean Conc × Temperature: 45.19^ab ppm
[1]; [23]
  Residual Nitrite, LSMean main effect of Concentration: 66.58^a ppm and 72.28 ppm
[1]; [24]
  Residual Nitrite, LSMean Conc × Temperature: 65.60^ab ppm
[1]; [25]
  Residual Nitrite, LSMean Conc × Temperature: 61.51^ab ppm
[1]; [26]
  Residual Nitrite, LSMean Conc × Temperature: 72.63^ab ppm
[1]; [27]
  Residual Nitrite, LSMean main effect of Concentration: 57.60^ab ppm and 54.95 ppm
[1]; [28]
  Residual Nitrite, LSMean Conc × Temperature: 53.90^ab ppm
[1]; [29]
  Residual Nitrite, LSMean Conc × Temperature: 73.59^a ppm
[1]; [30]
  Residual Nitrite, LSMean Conc × Temperature: 45.32^ab ppm
[1]; [31]
  Residual Nitrite, LSMean main effect of Concentration: 60.63^ab ppm and 48.16 ppm
[1]; [32]
  Residual Nitrite, LSMean Conc × Temperature: 67.76^ab ppm
[1]; [33]
  Residual Nitrite, LSMean Conc × Temperature: 52.15^ab ppm
[1]; [34]
  Residual Nitrite, LSMean Conc × Temperature: 61.99^ab ppm
[1]; [35]
  Residual Nitrite, LSMean main effect of Concentration: 45.02^b ppm and 38.14 ppm
[1]; [36]
  Residual Nitrite, LSMean Conc × Temperature: 53.87^ab ppm
[1]; [37]
  Residual Nitrite, LSMean Conc × Temperature: 30.83^b ppm
[1]; [38]
  Residual Nitrite, LSMean Conc × Temperature: 50.37^ab ppm
[1]; [39]
  Residual Nitrite, LSMean main effect of Temperature: 65.70 ppm
[1]; [40]
  Residual Nitrite, LSMean main effect of Temperature: 56.32^ ppm and 56.32 ppm
[1]; [41]
  Residual Nitrite, LSMean main effect of Temperature: 55.10 ppm
[2]; [4]
  Residual Nitrite, LSMean Conc × Temp: 85.37 ppm
[2]; [5]
  Residual Nitrite, LSMean Conc × Temp: 76.56 ppm
[2]; [6]
  Residual Nitrite, LSMean Conc × Temp: 65.51 ppm
[2]; [7]
  Residual Nitrite, LSMean Conc × Temp: 82.58 ppm
[2]; [8]
  Residual Nitrite, LSMean Conc × Temp: 66.33 ppm
[2]; [9]
  Residual Nitrite, LSMean Conc × Temp: 75.98 ppm
[2]; [10]
  Residual Nitrite, LSMean Conc × Temp: 78.11 ppm
[2]; [11]
  Residual Nitrite, LSMean Conc × Temp: 84.73 ppm
[2]; [12]
  Residual Nitrite, LSMean Conc × Temp: 57.42 ppm
[2]; [13]
  Residual Nitrite, LSMean Conc × Temp: 72.90 ppm
[2]; [14]
  Residual Nitrite, LSMean Conc × Temp: 83.35 ppm
[2]; [15]
  Residual Nitrite, LSMean Conc × Temp: 52.11 ppm
[2]; [16]
  Residual Nitrite, LSMean Conc × Temp: 57.48 ppm
[2]; [17]
  Residual Nitrite, LSMean Conc × Temp: 48.52 ppm
[2]; [18]
  Residual Nitrite, LSMean Conc × Temp: 38.80 ppm
[2]; [19]
  Residual Nitrite, LSMean main effect of Concentration: 107.03^a ppm and 107.03 ppm
[2]; [20]
  Residual Nitrite, LSMean Conc × Temp: 110.31^a ppm
[2]; [21]
  Residual Nitrite, LSMean Conc × Temp: 117.12^a ppm
[2]; [22]
  Residual Nitrite, LSMean Conc × Temp: 93.64^abc ppm
[2]; [23]
  Residual Nitrite, LSMean main effect of Concentration: 105.44^a ppm and 105.44 ppm
[2]; [24]
  Residual Nitrite, LSMean Conc × Temp: 101.25^abc ppm
[2]; [25]
  Residual Nitrite, LSMean Conc × Temp: 96.50^abc ppm
[2]; [26]
  Residual Nitrite, LSMean Conc × Temp: 118.58^a ppm
[2]; [27]
  Residual Nitrite, LSMean main effect of Concentration: 102.80^a ppm and 102.80 ppm
[2]; [28]
  Residual Nitrite, LSMean Conc × Temp: 107.12^ab ppm
[2]; [29]
  Residual Nitrite, LSMean Conc × Temp: 111.73^a ppm
[2]; [30]
  Residual Nitrite, LSMean Conc × Temp: 89.54^abc ppm
[2]; [31]
  Residual Nitrite, LSMean main effect of Concentration: 90.87^a ppm and 90.87 ppm
[2]; [32]
  Residual Nitrite, LSMean Conc × Temp: 101.77^ab ppm
[2]; [33]
  Residual Nitrite, LSMean Conc × Temp: 113.35^a ppm
[2]; [34]
  Residual Nitrite, LSMean Conc × Temp: 57.51^bcd ppm
[2]; [35]
  Residual Nitrite, LSMean main effect of Concentration: 40.23^b ppm and 40.23 ppm
[2]; [36]
  Residual Nitrite, LSMean Conc × Temp: 52.68^cd ppm
[2]; [37]
  Residual Nitrite, LSMean Conc × Temp: 37.81^d ppm
[2]; [38]
  Residual Nitrite, LSMean Conc × Temp: 30.19^d ppm
[2]; [39]
  Residual Nitrite, LSMean main effect of Temperature: 95.63^a ppm and 95.63 ppm
[2]; [40]
  Residual Nitrite, LSMean main effect of Temperature: 95.30^a ppm and 95.30 ppm
[2]; [41]
  Residual Nitrite, LSMean main effect of Temperature: 77.89^b ppm and 77.89 ppm
NOS system; 1000 ppm L-arginine with 547 ppm sodium erythorbate
  Nitrite: 13 ppm and 13.43^bc ppm
NOS system; 1000 ppm L-arginine, no cure accelerator
  Nitrite: 8.02^d ppm
NOS system; 5000 ppm L-arginine with 547 ppm sodium erythorbate
  Nitrite: 16 ppm and 15.87^b ppm
NOS system; 5000 ppm L-arginine, no cure accelerator
  Nitrite: 10.64^cd ppm
NOS system; range over L-arginine treated frankfurters after 7 days of storage
  residual nitrite levels: 8.02 to 15.87 ppm
[3]
  Residual Nitrite, LSMean main effect of Concentration: 57.57 ppm
[3]; 132° F.
  Residual Nitrite, LSMean Conc × Temp: 39.35 ppm
[3]; 158° F.
  Residual Nitrite, LSMean Conc × Temp: 70.84 ppm
